Measurements published in the NIST ThermoML archive (doi:10.1021/je0301951).

Assay: wn = mass fraction of the nth substance listed
Details: Liquid, w2 = 1

binary diffusion coefficient (293 K) [m2/s]	binary diffusion coefficient (298 K) [m2/s]	binary diffusion coefficient (303 K) [m2/s]	binary diffusion coefficient (308 K) [m2/s]	binary diffusion coefficient (313 K) [m2/s]	Compound
1.71e-09	1.9e-09	2.13e-09	2.47e-09	2.86e-09	O=C=O [carbon dioxide] + O
1.54e-09	1.8e-09	1.98e-09	2.29e-09	2.58e-09	[N-]=[N+]=O [nitrous oxide] + O
